Experimental data from patent publication US8598367B2, “Nitrogen-containing heterocyclic compound and pest control agent” (Nippon Soda Co., Ltd., priority 2008, dated 2013).

Legend:
[1] = tested on: Tetranychus urticae with organophosphate resistance; test: Test Case 2 Efficacy Against Tetranychus urticae; conditions: 125 ppm wettable powder (Formulation Example 1) applied to bean leaf with female adults; 25° C., humidity 65%; after three days
Aphis gossypii = test: Test case 1 Efficacy against Aphis gossypii; assay type: in vivo; conditions: 125 ppm emulsion (Formulation Example 2) applied to cucumbers parasitized with offspring; 25° C., humidity 65%; after five days
Text: Test case 1 Efficacy against Aphis gossypii
The test was repeated twice.

## Cc1cc(Cl)ccc1N=CN(C)C [chlordimeform]
[1]
  insect mortality rate: 9%

## Cc1nc(N(C)C)nc(OC(=O)N(C)C)c1C [pirimicarb]
Aphis gossypii
  insect mortality rate: 9%
